In PubChem BioAssay (NCI):
“And” between values parts separate entries of the source, which are not always exact repeats. Equal entries are not always repeated.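 The compound was tested at five concentrations on cells cultured in 96-well plates, with a 48-hour exposure period. At the GI50, growth is halved. TGI: concentration producing complete growth inhibition.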

Columns and labels:
Assay in all cases: DTP human tumour cell line panel, 48 h
[1] = system: SF-295 CNS
[2] = system: NCI-H226 lung
[3] = system: NCI-H522 lung
[4] = system: A549 NSCLC
[5] = system: OVCAR-5 ovarian
[6] = system: OVCAR-8 ovarian
[7] = system: TK-10 renal
[8] = system: MCF7 breast
[9] = system: SNB-75 CNS
[10] = system: A498 renal
[11] = system: CCRF-CEM leukemia
[12] = system: MALME-3M melanoma
[13] = system: K-562 leukemia

NC1=CC(C(=O)c2ccncc2)c2nc3ccccc3nc21 (configuration not stated)
TGI [1]: > 100 µM
TGI [2]: > 100 µM
TGI [3]: > 100 µM
TGI [4]: > 100 µM
TGI [5]: > 100 µM
TGI [6]: > 100 µM
TGI [7]: > 100 µM
TGI [8]: > 100 µM
TGI [9]: > 100 µM
TGI [10]: > 100 µM
TGI [11]: > 100 µM
TGI [12]: > 100 µM

N#CC1=C(C#N)/C(=C(\C#N)C(C#N)C#N)N=C1N
TGI [1]: > 100 µM
TGI [2]: 97.3 µM
TGI [13]: > 100 µM
TGI [3]: 47.7 µM
TGI [4]: 54.9 µM
TGI [5]: > 93.9 µM
TGI [6]: > 100 µM
TGI [7]: > 68.3 µM
TGI [8]: > 100 µM
TGI [9]: > 81.8 µM
TGI [10]: 65.4 µM
TGI [11]: 50.7 µM
TGI [12]: 38.2 µM

CO[C@@](c1ccccc1)(c1nc(C#N)c(N)o1)C(F)(F)F
TGI [1]: > 100 µM
TGI [2]: > 100 µM
TGI [13]: > 100 µM
TGI [3]: 85.9 µM
TGI [4]: > 100 µM
TGI [6]: > 100 µM
TGI [7]: > 100 µM
TGI [8]: > 100 µM
TGI [9]: > 100 µM
TGI [10]: > 100 µM
TGI [11]: 74.7 µM
TGI [12]: > 100 µM

Cc1ccc(S(=O)(=O)NC(=O)NCC(=O)NCC(=O)O)cc1
TGI [1]: > 100 µM
TGI [2]: > 100 µM
TGI [13]: > 100 µM
TGI [3]: > 100 µM
TGI [4]: > 100 µM
TGI [5]: > 100 µM
TGI [6]: > 100 µM
TGI [7]: > 100 µM
TGI [8]: > 100 µM
TGI [9]: > 100 µM
TGI [10]: > 100 µM
TGI [11]: > 100 µM
TGI [12]: > 100 µM

CC1(C)OC(=O)C(C)(C)OC1=O
TGI [1]: > 100 µM
TGI [2]: > 100 µM
TGI [13]: > 100 µM
TGI [3]: > 100 µM
TGI [4]: > 100 µM
TGI [5]: > 100 µM
TGI [6]: > 100 µM
TGI [7]: > 100 µM
TGI [8]: > 100 µM
TGI [9]: > 100 µM
TGI [10]: > 100 µM
TGI [11]: > 100 µM
TGI [12]: > 100 µM

COc1ccc2c(c1)N(C(C)=O)CN1C(=O)CCC21 (configuration not stated)
TGI [1]: > 100 µM
TGI [2]: > 100 µM
TGI [13]: > 100 µM
TGI [3]: > 100 µM
TGI [4]: > 100 µM
TGI [5]: > 100 µM
TGI [6]: > 100 µM
TGI [7]: > 100 µM
TGI [8]: > 100 µM
TGI [9]: > 100 µM
TGI [10]: > 100 µM
TGI [11]: > 100 µM
TGI [12]: > 100 µM

COc1cc2c(cc1OC)C1C(O)C(OC)C=C3CC[N+](C)(C2)C31 (configuration not stated)
TGI [1]: > 100 µM
TGI [2]: > 100 µM
TGI [3]: > 100 µM
TGI [4]: > 100 µM
TGI [5]: > 100 µM
TGI [6]: > 100 µM
TGI [7]: > 100 µM
TGI [8]: > 100 µM
TGI [9]: > 100 µM
TGI [10]: > 100 µM
TGI [11]: > 100 µM
TGI [12]: > 100 µM

CN(C)c1ncnc2c1ncn2C1C=CC(COS(N)(=O)=O)C1 (configuration not stated)
TGI [1]: > 100 µM
TGI [13]: > 100 µM
TGI [3]: > 100 µM
TGI [4]: > 100 µM
TGI [6]: > 100 µM
TGI [8]: > 100 µM
TGI [9]: > 100 µM
TGI [10]: > 100 µM
TGI [11]: > 100 µM
TGI [12]: > 100 µM

Cc1cc(NC(=O)C(=O)Cc2cnc3ccccc3n2)c(S(=O)(=O)O)cc1Cl
TGI [1]: > 100 µM
TGI [2]: > 100 µM
TGI [13]: > 100 µM
TGI [3]: > 100 µM
TGI [4]: > 100 µM
TGI [5]: > 100 µM
TGI [6]: > 100 µM
TGI [7]: > 100 µM
TGI [8]: > 100 µM
TGI [9]: > 100 µM
TGI [10]: > 100 µM
TGI [11]: > 100 µM
TGI [12]: > 100 µM

CC1=CCC[C@@](C)(O)[C@@H]2C[C@H]3C(CSc4ccccc4)C(=O)O[C@H]3[C@@H](O2)[C@H](C)CCC1 (some centres not stated)
TGI [1]: 25.3 µM
TGI [13]: > 100 µM
TGI [3]: 35.9 µM
TGI [4]: 27.1 µM
TGI [5]: 30.7 µM
TGI [6]: 32.4 µM
TGI [7]: 33.5 µM
TGI [8]: 29.4 µM
TGI [9]: 31.1 µM
TGI [10]: 45 µM
TGI [11]: > 100 µM
TGI [12]: 32.1 µM

O=C1/C(=C/c2ccc(Cl)cc2)NC(=S)N1CN1CCOCC1
TGI [1]: > 100 µM
TGI [2]: > 100 µM
TGI [13]: > 100 µM
TGI [4]: > 100 µM
TGI [5]: > 100 µM
TGI [6]: > 100 µM
TGI [7]: > 100 µM
TGI [8]: > 100 µM
TGI [9]: > 100 µM
TGI [10]: > 100 µM
TGI [11]: > 100 µM
TGI [12]: > 100 µM

CC(=O)NCC1(c2ccccc2)CCN(CC2COc3ccccc3O2)CC1 (configuration not stated)
TGI [1]: > 100 µM
TGI [2]: > 100 µM
TGI [13]: > 100 µM
TGI [3]: > 100 µM
TGI [4]: > 100 µM
TGI [5]: > 100 µM
TGI [6]: > 100 µM
TGI [7]: > 100 µM
TGI [8]: > 100 µM
TGI [9]: > 100 µM
TGI [10]: > 100 µM
TGI [11]: > 100 µM
TGI [12]: > 100 µM

Nc1nc(N)nc(-c2cnccn2)n1
TGI [1]: > 100 µM
TGI [2]: > 100 µM
TGI [13]: > 100 µM
TGI [3]: > 100 µM
TGI [4]: > 100 µM
TGI [5]: > 100 µM
TGI [6]: > 100 µM
TGI [7]: > 100 µM
TGI [8]: > 100 µM
TGI [9]: > 100 µM
TGI [10]: > 100 µM
TGI [11]: > 100 µM
TGI [12]: > 100 µM

CC(=O)O[C@H]1C(=O)[C@@]2(C)[C@H]([C@H](OC(=O)c3ccc([N+](=O)[O-])cc3)[C@]3(O)C[C@H](OC(=O)[C@H](O)[C@@H](NC(=O)c4ccccc4)c4ccccc4)C(C)=C1C3(C)C)[C@]1(OC(C)=O)CO[C@@H]1C[C@@H]2O
TGI [1]: > 25 µM
TGI [2]: > 25 µM
TGI [13]: > 25 µM
TGI [3]: > 25 µM
TGI [4]: > 25 µM
TGI [5]: > 25 µM
TGI [6]: > 25 µM
TGI [7]: > 25 µM
TGI [8]: > 25 µM
TGI [9]: > 25 µM
TGI [10]: > 25 µM
TGI [11]: > 25 µM
TGI [12]: > 25 µM

CC(=O)OCC1OC(n2c3c(c(-c4ccc(Cl)cc4)c(C#N)c2=S)C(=O)CC(C)(C)C3)C(OC(C)=O)C(OC(C)=O)C1OC(C)=O (configuration not stated)
TGI [1]: > 100 µM
TGI [2]: > 81 µM
TGI [13]: > 100 µM
TGI [3]: > 58.1 µM
TGI [4]: > 100 µM
TGI [5]: > 100 µM
TGI [6]: 51.8 µM
TGI [7]: > 100 µM
TGI [8]: > 95.3 µM
TGI [9]: 44.3 µM
TGI [10]: 87.9 µM
TGI [11]: > 100 µM
TGI [12]: > 100 µM

CCOc1ccc(N/C(=C(/C(Cl)=C(/Cl)NCCO)[N+](=O)[O-])n2nnc3ccccc32)cc1
TGI [1]: > 100 µM
TGI [2]: > 100 µM
TGI [13]: > 100 µM
TGI [4]: > 100 µM
TGI [5]: > 100 µM
TGI [6]: 36.7 µM
TGI [8]: 38.8 µM
TGI [9]: > 100 µM
TGI [10]: > 100 µM
TGI [11]: > 100 µM
TGI [12]: 32.4 µM

CN(C)CCOC1(Cc2ccc(Cl)cc2Cl)CCC(C(C)(C)C)CC1 (configuration not stated)
TGI [1]: 3.2 µM and 3.41 µM
GI50 [2]: 2.19 µM and 4.67 µM
TGI [2]: 5.13 µM and 10.7 µM
TGI [13]: 3.77 µM and 3.94 µM
TGI [3]: 3.44 µM and 3.85 µM
TGI [4]: 5.85 µM and 4.22 µM
GI50 [5]: 2.09 µM
TGI [5]: 5.54 µM and 3.55 µM
TGI [6]: 3.59 µM and 3.74 µM
GI50 [7]: 2.02 µM
TGI [7]: 4.99 µM and 2.75 µM
GI50 [8]: 1.79 µM
TGI [8]: 3.49 µM and 3.65 µM
GI50 [9]: 2.52 µM
TGI [9]: 3.89 µM and 7.39 µM
GI50 [10]: 2.07 µM
TGI [10]: 5.18 µM and 3.95 µM
TGI [11]: 4.69 µM and 5.32 µM
TGI [12]: 4.41 µM and 3.24 µM
